Usually pIC50 stands for the IC50 on a negative log10 scale, so that one unit is a factor of ten. Low readings indicate a high IC50, high ones a low IC50. In general, LD50 refers to the dose expected to kill half of the subjects tested.

pIC50: −log10 of the molar value. Some results are limits rather than exact numbers.

One series has as its system Influenza A virus. The series is described as follows: In vitro antiinfluenza activity against influenza virus A strain. It counts as functional, organism-based.
A further series deals with Influenza B virus. Briefly: In vitro antiinfluenza activity against influenza virus B strain. It counts as functional, organism-based.
A short description of series [1]: Lethal dose against mice upon intraperitoneal administration. As to conditions: mouse, in vivo, ip. It counts as toxicity.
The nature of series [2]: Lethal dose against mice upon oral administration. It counts as toxicity. As to conditions: mouse, in vivo.

On to `Cc1nc(NCCc2cccc(N3CCCC3)c2)c2cc[nH]c2n1`, for which the negative-log IC50 (pIC50) with Influenza A virus is 4.62.

Take `Cc1nc(NCc2cccc(N3CCCC3)c2)c2cc[nH]c2n1`: the negative logarithm of the IC50 (pIC50) with Influenza A virus was 5.32; with Influenza B virus, 5.19.

In the case of `Cc1nc(NCCc2cccc(N3CCCCC3)c2)c2cc[nH]c2n1`, the pIC50 with Influenza A virus is 4.54.

Consider `Cc1nc2nccc-2c(NCCc2cccc(N(C)C)c2)[nH]1`, for which, in the series with Influenza A virus, the pIC50 is 4.26.

With `Cc1nc(NCc2cccc(N3CCCCC3)c2)c2cc[nH]c2n1`, the negative-log IC50 (pIC50) in the series on Influenza A virus was 5.64; with Influenza B virus, 5.29. The LD50 in series [1] and in series [2] was more than 500 mg/kg throughout.

With `Cc1nc2nccc-2c(NCc2cccc(N(C)C)c2)[nH]1`, the pIC50 was 4.74 in the series with Influenza A virus and more than 4.00 with Influenza B virus.

In turn, `Cc1nc(NCCc2ccccc2)c2cc[nH]c2n1` gave a pIC50 in the series with Influenza A virus of 4.42.

On to `NC12CC3CC(CC(C3)C1)C2` [AMANTADINE], for which the pIC50 with Influenza A virus was 5.90.

On to `Cc1nc(NCc2ccccc2)c2cc[nH]c2n1` [ROLODINE], for which, in the series on Influenza A virus, the pIC50 was less than 4.00.

Values taken from ChEMBL document CHEMBL1128988, “The antiinfluenza activity of pyrrolo[2,3-d]pyrimidines” (Bioorg Med Chem Lett, 1996).
